We go through 1 compound from ChEMBL document CHEMBL1142600, “Production of justicidin B, a cytotoxic arylnaphthalene lignan from genetically transformed root cultures of Linum leonii” (J Nat Prod, 2006).

Structures are written as SMILES.

What all share (type): functional, cell-based
One test has as its system LAMA-84. The experiment in a line: Cytotoxicity against human LAMA-84 cells after 72 hrs by MTT assay. The note with it: LAMA-84, 72 h. Background: Tetrazolium assays rely on reduction of a dye to a coloured formazan, in cell work by metabolically active cells.
A further test relates to K562. The experiment in a line: Cytotoxicity against human K-562 cells after 72 hrs by MTT assay. The settings on record: K562, 72 h.
Test [1] can be described thus: Cytotoxicity against human SKW3 cells after 72 hrs by MTT assay. The note with it: SKW3, 72 h.

As to `COc1cc([C@@H]2c3cc4c(cc3[C@@H](O[C@@H]3O[C@@H]5CO[C@@H](C)O[C@H]5[C@H](O)[C@H]3O)[C@H]3COC(=O)[C@H]23)OCO4)cc(OC)c1O` [ETOPOSIDE], the IC50 – broadly, the concentration at which inhibition is half-maximal – in the test on LAMA-84 stood at 790 nM; in the test with K562 it was 1870 nM; in test [1], 820 nM.
